Patent publication US4504483A, “Fluorine substituted pyridine methyl esters and insecticidal and acaricidal compositions thereof” (Nissan Chemical Industries Ltd., priority 1981, dated 1985)
In brackets after ≈: the same amount, converted by molar mass.

Legend:
Common cutworm = test: Contact test for killing Common cutworm; type: in vivo, Spodoptcra litura; conditions: 48 h, read-out: LC50 (median lethal dose)
Experimental: Leaves of cabbage were dipped in each aqueous emulsion of each active ingredient of the compounds of the invention or the reference for 10 seconds. The leaves were taken up and dried in air and put in a Petri dish. Common cutworms (second instar) were put in the Petri dish which was covered with a cover having many holes. The Petri dish was maintained in a constant temperature room at 25° C. for 48 hours and each percent mortality was determined and median lethal dose (LC50) was calculated in Finny's graphic method.

green rice leafhopper = test: Contact test for killing green rice leafhopper; type: in vivo; conditions: Nephotettix cincticeps, 48 h, read-out: LC50 (median lethal dose)
Experimental: Stems and leaves of a rice seedling were dipped in each emulsion of each active ingredient of the present invention or a reference compound for 10 seconds and were dried in air. The stems and leaves were covered with a glass cylinder. Adult green rice leafhoppers which are resistant to the conventional organic phosphorus type insecticide were released into the glass cylinder which was covered with a cover having holes and was maintained in a constant temperature room at 25° C. for 48 hours and each percent mortality was determined and median lethal dose (LC50) was calculated in Finny's graphic method.

[1] = system: Twenty-eight-spotted Ladybeetle; test: Contact test for killing Twenty-eight-spotted Ladybeetle; type: in vivo; conditions: Henosepilachna vigintioctopunctata, in Solanum lycopersicum, 48 h, read-out: LC50 (median lethal dose)
Experimental: Leaves of tomato were dipped in each emulsion of each active ingredient of the present invention or the reference for 10 seconds. The leaves were taken up and dired in air and put in a Petri dish. Ten of Twenty-eight-spotted Ladybeetles (second instar) were put in the Petri dish which was covered with a cover. The Petri dish was maintained in a constant temperature room at 25° C. for 48 hours and percent mortality was determined and median lethal dose (LC50) was calculated in Finny's graphic method.

Kanzawa spider mite = test: Test for killing Kanzawa spider mite; type: in vivo; conditions: Tetranychus kanzawai, in Phaseolus vulgaris, 48 h, read-out: LC50 (median lethal dose)
Source text: Leaves of kidney bean was cut by a leaf-punch in a form of circle having a diameter of 1.5 cm. The leaf-discs were put on a wet filter paper on a polystyrene cup having a diameter of 7 cm. Ten of Kanzawa spider mites were inoculated on the leaf-discs in the cup. Half days after the inoculation, each solution prepared by diluting each emulsifiable concentrate of the present invention or each reference compound with a spreader (Nitten S 4,000 times manufactured by Nissan Chem.) at each predetermined concentration was sprayed by a rotary spray for 2 ml. per each cup.
Numbers of mortalities of mites were measured after 48 hours from the spraying and percent mortaliteis were calculated and median lethal dose (LC50) was calculated in Finny's graphic method.

Green peach aphid = test: Test for killing Green peach aphid; type: in vivo, Myzue persicae; conditions: Myzus persicae, 48 h, read-out: LC50 (median lethal dose)
Experimental: Each emulsifiable concentrate of the compound of the present invention or the reference compound was diluted with water to a predetermined concentration. Green peach aphid were inoculated on leaves in a Petri dish having a diameter of 3 cm and 2 ml of each emulsion was sprayed and it was covered. The Petri dish was maintained in a constant temperature room at 25° C. for 48 hours and each percent of mortality was determined and median lethal dose (LC50) was calculated in Finny's graphic method.

Row | SMILES | LC50 (Common cutworm) | LC50 (green rice leafhopper) | LC50 [1] | LC50 (Kanzawa spider mite) | LC50 (Green peach aphid)
1 | CC(C)C(C(=O)OC(C#N)c1cccc(Oc2ccccc2)n1)c1ccc(Cl)cc1 (centres unmarked) [Reference Compd. B] | 1.7 mg/L (≈ 4.04 µM) | 5 mg/L (≈ 11.9 µM) |  |  | 
2 | CC(C)C(C(=O)OC(C#N)c1ccc(F)c(Oc2ccccc2)n1)c1ccc(Cl)cc1 (stereo not drawn) [Compound No. 1, Cyano(5-fluoro-6-phenoxy-2-pyridyl) methyl α-isopropyl-p-chlorophenylacetate] | 0.43 mg/L (≈ 0.98 µM) | 0.26 mg/L (≈ 0.592 µM) | 0.05 mg/L (≈ 0.114 µM) | 6.3 mg/L (≈ 14.4 µM) | 
3 | CC(C)(C)c1ccc([C@H]2[C@H](C(=O)OC(C#N)c3ccc(F)c(Oc4ccccc4)n3)C2(C)C)cc1 (relative stereo) [Compound No. 4, Cyano(5-fluoro-6-phenoxy-2-pyridyl) methyl trans-2,2-dimethyl-3-(p-t-butylphenyl)cyclopropanecarboxylate] | 4 mg/L (≈ 8.46 µM) | 1.3 mg/L (≈ 2.75 µM) |  | 0.32 mg/L (≈ 0.677 µM) | 4.6 mg/L (≈ 9.73 µM)
4 | CC1(C)C(C(=O)OC(C#N)c2cccc(Oc3ccc(F)cc3)n2)C1c1ccc(Cl)cc1 (centres unmarked) [Reference Compd. E] | 13 mg/L (≈ 28.8 µM) | 16 mg/L (≈ 35.5 µM) |  |  | 
5 | CC1(C)C(C(=O)OC(C#N)c2cccc(Oc3ccccc3)n2)C1c1ccc(Cl)cc1 (centres unmarked) [Reference Compd. F] | 15 mg/L (≈ 34.6 µM) |  | 2 mg/L (≈ 4.62 µM) |  | 
6 | CC1(C)C(C=C(Cl)Cl)C1C(=O)OCc1cccc(Oc2ccccc2)n1 (centres unmarked) [Reference Compd. I] | 10 mg/L (≈ 25.5 µM) | 3.7 mg/L (≈ 9.43 µM) |  | > 100 mg/L | 34 mg/L (≈ 86.7 µM)
7 | CC(C)(C)c1ccc(C2C(C(=O)OC(C#N)c3cccc(Oc4ccc(F)cc4)n3)C2(C)C)cc1 (centres unmarked) [Reference Compd. G] | 12 mg/L (≈ 25.4 µM) | 32 mg/L (≈ 67.7 µM) |  | 2 mg/L (≈ 4.23 µM) | 
8 | CC1(C)C(C=C(Cl)Cl)C1C(=O)OC(C#N)c1ccc(F)c(Oc2ccccc2)n1 (centres unmarked) [Compound No. 5] | 0.31 mg/L (≈ 0.712 µM) | 0.4 mg/L (≈ 0.919 µM) | 0.03 mg/L (≈ 0.0689 µM) | 5.4 mg/L (≈ 12.4 µM) | 1.84 mg/L (≈ 4.23 µM)
9 | CC(C)C(C(=O)OC(C#N)c1cccc(Oc2ccc(F)cc2)n1)c1ccc(Cl)cc1 (centres unmarked) [Reference Compd. A] | 3.1 mg/L (≈ 7.06 µM) | 1.4 mg/L (≈ 3.19 µM) |  | 100 mg/L (≈ 228 µM) | 
10 | CC(C)C(C(=O)OC(C#N)c1cccc(Oc2ccc(F)cc2)n1)c1ccc(OC(F)F)cc1 (centres unmarked) [Reference Compd. C] | 5 mg/L (≈ 10.6 µM) | 76 mg/L (≈ 162 µM) | 21 mg/L (≈ 44.6 µM) | > 100 mg/L | 
11 | CC1(C)[C@@H](C(=O)OC(C#N)c2ccc(F)c(Oc3ccccc3)n2)[C@@H]1c1ccc(Cl)cc1 (relative stereo) [Compound No. 3] | 1.3 mg/L (≈ 2.88 µM) | 0.7 mg/L (≈ 1.55 µM) | 0.26 mg/L (≈ 0.577 µM) |  | 
12 | CCCCc1ccc(C2C(C(=O)OC(C#N)c3cccc(Oc4ccccc4)n3)C2(C)C)cc1 (centres unmarked) [Reference Compd. H] |  | 6.4 mg/L (≈ 14.1 µM) |  |  | 12 mg/L (≈ 26.4 µM)
13 | CC(C)C(C(=O)OC(C#N)c1cccc(Oc2ccccc2)n1)c1ccc(OC(F)F)cc1 (centres unmarked) [Reference Compd. D] | 9 mg/L (≈ 19.9 µM) | 6 mg/L (≈ 13.3 µM) | 0.9 mg/L (≈ 1.99 µM) |  | 26 mg/L (≈ 57.5 µM)
14 | CC1(C)[C@H](C(=O)OC(C#N)c2ccc(F)c(Oc3ccccc3)n2)[C@@H]1C=C(Br)Br (stereo partly drawn) [Compound No. 6, Cyano(5-fluoro-6-phenoxy-2-pyridyl) methyl (1R, cis)-2,2-dimethyl-3-(2,2-dibromovinyl)cyclopropane carboxylate] | 0.24 mg/L (≈ 0.458 µM) | 0.31 mg/L (≈ 0.591 µM) | 0.02 mg/L (≈ 0.0382 µM) |  | 
15 | CC(C)C(C(=O)OC(C#N)c1ccc(F)c(Oc2ccccc2)n1)c1ccc(OC(F)F)cc1 (centres unmarked) [Compound No. 2] | 3 mg/L (≈ 6.38 µM) | 0.28 mg/L (≈ 0.595 µM) | 0.5 mg/L (≈ 1.06 µM) | 12 mg/L (≈ 25.5 µM) | 2.3 mg/L (≈ 4.89 µM)
